Counter-ions that a name gives are not always drawn.
What was measured:
[1] = molecular target: α5β1 integrin receptor (Homo sapiens, UniProt P05556+P08648); assay: Competition ELISA, integrin antagonism (fibronectin ligand); conditions: fibronectin binding to coated receptor
Description: (§1) Suitable methods for determining EC50 values are known to the skilled person. One particular method to determine the value for a particular compound is a competition ELISA assay wherein the integrin receptor under investigation (in particular human αvβ3 integrin receptor) is coated to a multi-well plate using a 4 μg/mL solution and the wells are blocked with 5% bovine serum albumin. The fibronectin concentration to be used in the assay is determined experimentally in a separate experiment by testing the binding of various fibronectin concentrations to the coated integrin under investigation, the concentration of fibronectin for the assay being the one that gives 80% of maximal binding. The determined concentration of human fibronectin is then added to the coated and blocked wells in the presence of increasing concentrations of the compound. After 2 h incubation at 37° C., the wells are washed and the bound fibronectin is detected with the help of a specific reagent, such as a detectable anti-fibronectin antibody. Quantitative analysis of the data is then performed to determine EC50 values, i.e. the concentration of the compound that reduces fibronectin binding to the coated receptor by 50%.
(§2) The principle of the competition ELISA assays used here was as follows: (1) the integrin receptor under investigation was coated to 96-well plates and the wells were blocked, (2) an integrin ligand (fibronectin) was then added to the relevant wells in the presence of increasing concentrations of a given integrin antagonist, (3) after a defined amount of time, the wells were washed and the bound ligand was detected with the help of a specific reagent. Quantitative analysis of the data was then performed to determine EC50 values, i.e. the concentration of the integrin antagonist that reduces ligand binding to the coated receptor by 50%.

[2] = molecular target: αvβ5 integrin receptor (Homo sapiens, UniProt P06756+P18084); assay: as above; conditions: fibronectin binding to coated receptor, read-out: EC50 ανβ5
Description: as §1, §2

[3] = molecular target: αvβ3 integrin receptor (Homo sapiens, UniProt P05106+P06756); assay: as above; conditions: fibronectin binding to coated receptor, read-out: EC50 ανβ3
Description: as §1, §2

[4] = molecular target: platelet integrin αIIbβ3 (Homo sapiens, UniProt P05106+P08514); assay: as above; conditions: fibronectin binding to coated receptor
Description: as §1, §2

[5] = system: human umbilical vein endothelial cells (HUVECs); assay: ORIS Cell Migration Assay; assay type: cell-based; conditions: HUVEC, fibronectin-coated plates, 24 h migration
Description: Endothelial cell wound healing is mediated by endothelial cell migration and proliferation, both critical components of the angiogenesis process, and is routinely used as a surrogate model for in vitro angiogenic potential. The ORIS™ Cell Migration Assay was used with human umbilical vein endothelial cells (HUVECs).
HUVEC cells (SCCE-001, Cat no 1000519, Merck Chemicals) were cultured in T175 flasks (Cat no 353112, falcon) in EndoGro Growth Medium (SCME-003, Merck Chemicals) and split when they reached 90-100% confluence.
For the assay, cells were used at passage 2 to 4 after thawing and at 80-90% confluency. At the beginning of the day, the fibronectin-coated Oris™ Cell Migration Assay Plates (Cat no # CMAFN.101, AMS Biotechnology) were removed from refrigeration and placed at RT for 1 h. The Oris Detection Masks were washed with ethanol and applied to the bottom of the 96-well plates, aligning the Al corner of the masks with the Al corner of the plates. Cells were harvested by trypsinization (Cat no 25300, Gibco), centrifuged at 250 g for 5 mm and suspended at 0.4·10^6 per mL in complete EndoGro growth medium. 100 μL of the cell suspension were added to the wells and the plates were incubated for 6 h at 37° C. and 5% C02 to allow cells to adhere.
At the end of the incubation, the stopper tool was washed with ethanol and used to remove the stoppers from all the wells except the reference wells. […]
Just prior to the end of the incubation, a 4 μg/mL calcein AM (Cat no 354217, Beckton Dickinson) solution was prepared in pre-warmed HBSS (Cat no 14025, Gibco). […] After incubation the fluorescence was read at 494 nm excitation and 517 nm emission wavelengths using the Flexstation and the SofiMax Pro 5.4.5 software (Molecular Devices). The fluorescence was read from the bottom of the plates with the lid on to keep them sterile. The masks were then removed and pictures were taken with the Axiovert fluorescence microscope (Zeiss) using reflected light, GFP and a 2.5× objective.

[6] = system: RPE-choroid sclera explants; assay: Murine choroidal explant assay (vessel sprouting); assay type: cell-based, C57BL/6J mice; conditions: for IC50: Mus musculus, murine choroid explants in fibrin gel, 3 to 4 days, read-out: IC50 vessel outgrowth
Source text: The assay is based on a murine microvascular angiogenesis explant model, which closely mimics in viva choroidal angiogenesis. The major advantage of this organotypical culture model is that cells are kept within their normal environment, thereby preserving cell-cell interactions, while maintaining a higher level of experimental control than in animal models. The choroidal explant model or briefly EMCA model allows for rapid evaluation of new anti-angiogenic therapeutics, with the additional benefit of excluding the potential lack of exposure often encountered when testing small molecules in animal eyes. RPE-choroid sclera explants (hereinafter referred to as choroid explants) are embedded in a three-dimensional fibrinogen/fibrin gel. Addition of serum-containing medium induces extensive endothelial cell sprout outgrowth into the matrix after 3 to 4 days in culture.
All experiments were performed using 4 to 5-weeks old male C57BL/6J mice (Charles River Laboratories France), housed under standard laboratory conditions according to a normal day/night rhythm with ad libitum access to food and water. All animal experiments were approved by the Institutional Ethical Committee of KU Leuven.
After initial optimization, a general protocol was set-up. Briefly, after euthanasia of the mice using pentobarbital (200 mg/kg, IP, Dolethal, Vetoquinol) followed by cervical dislocation, eyes were immediately enucleated with curved forceps and kept in ice-cold DPBS (cat no 14190-136, Gihco). Under a stereomicroscope, the eye was placed in a drop of ice-cold DPBS, and held in place with forceps on an ice-cold petri dish. The cornea and lens were removed via a circumferential incision at the limbus (cornea-sclera boundary) using Vannas spring scissors (Fine Science Tools). Next, redundant muscles were removed from the remaining eyeball and a cut was made from the edge of the posterior chamber towards the optic nerve head. […]

| SMILES | EC50 [1] | EC50 [2] | EC50 [3] | EC50 [4] | IC50 [5] | IC50 [6] | endothelial sprout formation, in words ([6]; murine choroid explants) |
| --- | --- | --- | --- | --- | --- | --- | --- |
| Cc1nc(NC[C@H](NC(=O)OCCC(=O)O)C(=O)O)c(C)c(N2CCC(c3ccc4c(n3)NCCC4)CC2)n1 [cpd1, (2S)-2-{[(2-carboxyethoxy)carbonyl]amino}-3-({2,5-dimethyl-6-[4-(5,6,7,8-tetrahydro-1,8-naphthyridin-2-yl)piperidin-1-yl]pyrimidin-4-yl}amino)propanoic acid] | 1 to 10 nM | 1 to 10 nM | 1 to 10 nM | > 25 nM | – | – | – |
| Cc1nc(NC[C@H](NC(=O)OCc2ccccc2)C(=O)O)c(C)c(N2CCC(c3ccc4c(n3)NCCC4)CC2)n1 [cpdB, reference compound] | 1 to 10 nM | 1 to 10 nM | 10 to 25 nM | 1 to 10 nM | < 1000 nM | ~1000 nM | – |
| Cc1nc(NC[C@H](NC(=O)OCC(=O)O)C(=O)O)c(C)c(N2CCC(c3ccc4c(n3)NCCC4)CC2)n1 [cpd2, (2S)-2-([(carboxymethoxy)carbonyl]amino)-3-({2,5-dimethyl-6-[4-(5,6,7,8-tetrahydro-1,8-naphthyridin-2-yl)piperidin-1-yl]pyrimidin-4-yl}amino)propanoic acid dihydrochloride] | 1 to 10 nM | 1 to 10 nM | 1 to 10 nM | > 25 nM | < 1000 nM | – | – |
| Cc1nc(NC[C@H](NC(=O)OC(C)C(=O)O)C(=O)O)c(C)c(N2CCC(c3ccc4c(n3)NCCC4)CC2)n1 (stereo partly drawn) [cpd3, (2S)-2-{[(1-carboxyethoxy)carbonyl]amino}-3-({2,5-dimethyl-6-[4-(5,6,7,8-tetrahydro-1,8-naphthyridin-2-yl)piperidin-1-yl]pyrimidin-4-yl}amino)propanoic acid, dihydrochloride] | 1 to 10 nM | 1 to 10 nM | 1 to 10 nM | > 25 nM | < 1000 nM | ~1000 nM | inhibition of vessel sprouting |
| COC(=O)CCOC(=O)N[C@@H](CNc1nc(C)nc(N2CCC(c3ccc4c(n3)NCCC4)CC2)c1C)C(=O)O [cpdA, (2S)-3-({2,5-dimethyl-6-[4-(5,6,7,8-tetrahydro-1,8-naphthyridin-2-yl)piperidin-1-yl]pyrimidin-4-yl}amino)-2-{[(3-methoxy-3-oxopropoxy)carbonyl]amino}propanoic acid trifluoro acetate, reference compound] | 1 to 10 nM | 1 to 10 nM | 1 to 10 nM | 1 to 10 nM | – | – | – |
